Laboratory results: patent US20260232652A1, “COMBINATIONS OF DGK (DIACYLGLYCEROL KINASE) INHIBITORS” (priority 2023, published 2026)
Several values for one entry are separate records, joined by “and”; a condition that tells them apart may be missing. Equal values may be shown once.

Columns and labels:
Human PBMCs = assay: Activation of PBMC cells (CD25+ of CD8+ naïve T-cells, flow cytometry); format: cell-based
Description: In addition to the experimental determination according to the protocol provided below, said proportion of CD25+ cells withing the CD8+ naïve T-cells was simulated according to Meyer et al., 2019, Cell Systems 8, 97-108, Feb. 27, 2019.
The relative amount of activated (CD25+) naïve CD8 T cells were analyzed by flow cytometry. Non-stimulated cells served as negative control, cells stimulated with 30 ng/ml aCD3/aCD28/IgG were used as positive control.

human DGKalpha = biological target: T1, human DGKalpha (Homo sapiens, UniProt P23743); assay: Human DGKalpha kinase activity inhibition assay (ADP-Glo); format: biochemical; details: read-out: IC50 hDGKa
T1 construct: made in house; host or cells: baculovirus-infected Sf9 insect cells
T1 sequence (P23743 whole entry): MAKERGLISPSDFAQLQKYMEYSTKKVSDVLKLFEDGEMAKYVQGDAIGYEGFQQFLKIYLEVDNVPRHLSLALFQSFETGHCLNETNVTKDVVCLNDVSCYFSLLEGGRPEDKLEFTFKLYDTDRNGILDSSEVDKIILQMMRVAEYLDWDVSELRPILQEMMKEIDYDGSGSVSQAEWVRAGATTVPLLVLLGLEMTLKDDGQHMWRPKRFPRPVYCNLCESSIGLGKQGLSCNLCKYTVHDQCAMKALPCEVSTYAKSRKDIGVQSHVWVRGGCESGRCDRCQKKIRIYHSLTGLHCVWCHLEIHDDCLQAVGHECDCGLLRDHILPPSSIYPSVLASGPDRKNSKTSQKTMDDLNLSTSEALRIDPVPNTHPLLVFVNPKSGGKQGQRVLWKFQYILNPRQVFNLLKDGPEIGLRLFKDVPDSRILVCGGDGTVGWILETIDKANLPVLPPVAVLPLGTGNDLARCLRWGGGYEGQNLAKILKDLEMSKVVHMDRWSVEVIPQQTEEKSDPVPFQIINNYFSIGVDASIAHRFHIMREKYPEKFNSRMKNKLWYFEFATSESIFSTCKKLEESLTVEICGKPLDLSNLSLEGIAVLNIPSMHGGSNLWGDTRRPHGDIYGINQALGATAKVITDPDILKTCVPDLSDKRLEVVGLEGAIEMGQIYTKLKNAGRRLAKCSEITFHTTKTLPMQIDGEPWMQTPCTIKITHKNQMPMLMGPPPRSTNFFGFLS
Description: Human DGKalpha inhibitory activity of compounds of the present invention was quantified employing the human DGKalpha kinase activity assay as described in the following paragraphs. In essence, the enzyme activity was measured by quantification of the adenosine-di-phosphate (ADP) generated as a co-product of the enzyme reaction via the “ADP-Glo™ Kinase Assay” kit from the company Promega. This detection system works as follows: In a first step the ATP not consumed in the kinase reaction is quantitatively converted to cAMP employing an adenylate cyclase (“ADP-Glo-reagent”), then the adenylate cyclase is stopped and the ADP generated in the kinase reaction converted to ATP, which subsequently generates in a luciferase-based reaction a glow-luminescence signal (“Kinase Detection Reagent”).
(§1) C-terminally FLAG-tagged, recombinant full-length human DGKalpha (expressed in baculovirus infected insect cells, purified using anti-Flag pulldown and size exclusion chromatography as described below, DGKa_hu_1) was used as enzyme. As substrate for the kinase 1,2-dioleoyl-sn-glycerol, reconstituted in octyl-β-D-glucopyranoside micelles, was used. […] Then 35 volumes of 50 mM MOPS buffer (pH 7.4) were added to yield a solution of 0.28 mM 1,2 dioleoyl-sn-glycerol and 200 mM octyl-β-D-glucopyranoside, which was aliquoted, flash-frozen in liquid nitrogen, and stored at −20° C. until use.
For the assay 50 nl of a 100-fold concentrated solution of the test compound in dimethyl sulfoxide (DMSO, Sigma) was pipetted into either a white 1536-well or a white low-volume 384-well microtiter plate (both Greiner Bio-One, Frickenhausen, Germany). […] The concentration of DGKα was adjusted depending of the activity of the enzyme lot and was chosen appropriate to have the assay in the linear range, a typical concentration is about 0.1 nM. The reaction was stopped by the addition of […] of “ADP-Glo-reagent” (1 to 1.5 diluted with water) and the resulting mixture was incubated at 22° C. for 1 h to convert the ATP not consumed in the kinase reaction completely to cAMP. […] The amount of emitted light was taken as a measure for the amount of ADP generated and thereby for the activity of the DGKα.

[1] = test system: EMT6 murine breast carcinoma cells; assay: Syngeneic EMT6 murine breast carcinoma model (Example 4); format: in vivo; details: EMT6 s.c. in Balb/c mice; DGKalpha inhibitor A 3 mg/kg QD, DGKzeta inhibitor A′ 5 mg/kg QD, plus isotype control 5 mg/kg Q3/4D; treatment day 8 to 23
Description: EMT6 murine breast carcinoma cells were inoculated s.c. into Balb/c mice (n=10/group). […] Q3/4D, every third or fourth day; QD, once daily. […] The following eight treatment groups are included: Polyethylene glycol 400 (PEG)/ethanol (EtOH)/water (60/10/30). • 1. Anti-PD-L1 (TPP-3911, 5 mg/kg) i.p., q3/4d • 2. […] DGKzeta inhibitor A' (5 mg/kg) p.o., q.d.+Isotype control (5 mg/kg) i.p., q3/4d • 4. […] Vehicle as described supra, q.d. Mice were assigned to a study at the age of 6-8 weeks. Animal husbandry, feeding and health conditions were according to animal welfare guidelines. EMT6 cell line was cultivated with appropriate medium and split at least 3 times before inoculation. Female Balb/c mice were inoculated subcutaneously with 5×10>5 tumor cells in a medium/matrigel mixture ratio of 1:1. After 8 days the mice were randomized, and therapeutic treatment started when tumors had reached a size of approx. 40-mm^2. Tumor size was measured using calipers determining length (a) and width (b), for results see FIG. 5. Tumor volume was calculated according to: […]

human DGKzeta = biological target: T2, human DGKzeta (Homo sapiens, UniProt Q13574); assay: Human DGKzeta kinase activity inhibition assay (ADP-Glo); format: biochemical; details: read-out: IC50 hDGKz
T2 construct: C-terminally FLAG-tagged, recombinant full-length human DGKζ; made in house; host or cells: baculovirus-infected insect cells
T2 sequence (Q13574 whole entry): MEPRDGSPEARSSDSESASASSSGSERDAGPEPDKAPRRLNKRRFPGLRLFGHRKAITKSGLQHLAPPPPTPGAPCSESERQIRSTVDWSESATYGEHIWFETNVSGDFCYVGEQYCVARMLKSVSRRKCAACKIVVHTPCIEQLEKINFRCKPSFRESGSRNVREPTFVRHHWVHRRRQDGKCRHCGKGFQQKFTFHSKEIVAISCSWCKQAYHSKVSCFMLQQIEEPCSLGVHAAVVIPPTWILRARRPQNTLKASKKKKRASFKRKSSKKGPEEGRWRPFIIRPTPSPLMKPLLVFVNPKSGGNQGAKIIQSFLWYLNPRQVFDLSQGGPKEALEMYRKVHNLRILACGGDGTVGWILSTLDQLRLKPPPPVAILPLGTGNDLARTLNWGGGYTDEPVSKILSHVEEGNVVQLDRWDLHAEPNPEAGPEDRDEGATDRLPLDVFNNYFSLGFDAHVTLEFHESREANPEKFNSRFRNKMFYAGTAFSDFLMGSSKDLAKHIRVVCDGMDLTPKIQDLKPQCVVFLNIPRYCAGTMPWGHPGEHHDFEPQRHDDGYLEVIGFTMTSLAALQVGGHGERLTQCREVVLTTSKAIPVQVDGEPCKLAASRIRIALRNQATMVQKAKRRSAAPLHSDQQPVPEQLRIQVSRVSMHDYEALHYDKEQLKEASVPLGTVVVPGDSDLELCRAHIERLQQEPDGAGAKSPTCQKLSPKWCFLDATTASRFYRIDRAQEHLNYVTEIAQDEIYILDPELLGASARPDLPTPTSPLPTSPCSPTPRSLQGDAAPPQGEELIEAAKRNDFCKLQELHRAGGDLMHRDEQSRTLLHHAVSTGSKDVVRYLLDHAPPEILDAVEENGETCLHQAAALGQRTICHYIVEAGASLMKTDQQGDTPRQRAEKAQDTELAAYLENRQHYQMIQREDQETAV
Description: Human diacylglycerol kinase zeta (DGKζ) inhibitory activity of compounds of the present invention was quantified employing the human DGKζ kinase activity assay as described in the following paragraphs. In essence, the enzyme activity was measured by quantification of the adenosine-di-phosphate (ADP) generated as a co-product of the enzyme reaction via the “ADP-Glo™ Kinase Assay” kit from the company Promega. This detection system works as follows: In a first step the adenosine-tri-phosphate (ATP) not consumed in the kinase reaction is quantitatively converted to cyclic adenosine-mono-phosphate (cAMP) employing an adenylate cyclase (“ADP-Glo-reagent”), then the adenylate cyclase is stopped and the ADP generated in the kinase reaction is converted to ATP, which subsequently generates in a luciferase-based reaction a glow-luminescence signal (“Kinase Detection Reagent”).
as §1, with “DGKζ (inhouse expressed” for “DGKalpha (expressed”, “chromatography)” for “chromatography as described below, DGKa_hu_1)”, “As an alternative, commercially available enzyme by Carnabio can be used. As” for “As”, “kinase,” for “kinase”
For the assay 50 nl of a 100-fold concentrated solution of the test compound in dimethyl sulfoxide (DMSO, Sigma) was pipetted into either a white 1536-well or a white low-volume 384-well microtiter plate (both Greiner Bio-One, Frickenhausen, Germany). […] The concentration of DGKζ was adjusted depending of the activity of the enzyme lot and was chosen appropriate to have the assay in the linear range, a typical concentration is about 0.1 nM. The reaction was stopped by the addition of 2.5 μL of “ADP-Glo-reagent” (1 to 1.5 diluted with water) and the resulting mixture was incubated at 22° C. for 1 h to convert the ATP not consumed in the kinase reaction completely to cAMP. […] The amount of emitted light was taken as a measure for the amount of ADP generated and thereby for the activity of the DGKζ.

## COc1ccc(C(=O)c2sc(N(c3ccc(F)cc3)[C@H](C)C(N)=O)nc2N)cc1 [DGKzeta inhibitor A′, (R)-2-(N-[4-amino-5-(4-methoxybenzoyl)thiazol-2-yl]-4-fluoro-anilino)propanamide]
Human PBMCs; unbound DGKai 0 nM, DGKzi 0.037 nM
  CD25+ of CD8+ naïve T-cells, Observed: 2% and 3.2%
Human PBMCs; unbound DGKai 0 nM, DGKzi 0.37 nM
  CD25+ of CD8+ naïve T-cells, Observed: 1.7% and 1.6% and 4.2%
Human PBMCs; unbound DGKai 0 nM, DGKzi 3.7 nM
  CD25+ of CD8+ naïve T-cells, Observed: 6% and 4.9% and 6.4%
Human PBMCs; unbound DGKai 0 nM, DGKzi 11 nM
  CD25+ of CD8+ naïve T-cells, Observed: 15% and 10%
Human PBMCs; unbound DGKai 0 nM, DGKzi 37 nM
  CD25+ of CD8+ naïve T-cells, Observed: 29% and 18%
Human PBMCs; unbound DGKai 0 nM, DGKzi 111 nM
  CD25+ of CD8+ naïve T-cells, Observed: 34% and 25% and 35%
Human PBMCs; unbound DGKai 0 nM, DGKzi 370 nM
  CD25+ of CD8+ naïve T-cells, Observed: 32% and 44% and 31%
Human DGKalpha
  IC50: > 3.63 µM
[1]
  tumor growth inhibition: only moderate tumor growth inhibitions

## Cc1ccc2oc(C3CCN(c4c(C(N)=O)c(=O)n(C)c5ccc(F)cc45)CC3)nc2c1 [DGKalpha inhibitor A, 6-fluoro-1-methyl-4-[4-(5-methyl-1,3-benzoxazol-2-yl)piperidin-1-yl]-2-oxo-1,2-dihydroquinoline-3-carboxamide]
Human PBMCs; unbound DGKai 0.024 nM, DGKzi 0 nM
  CD25+ of CD8+ naïve T-cells, Observed: 4.1% and 3.1% and 12%
Human PBMCs; unbound DGKai 0.24 nM, DGKzi 0 nM
  CD25+ of CD8+ naïve T-cells, Observed: 3.4% and 5.1% and 6.4%
Human PBMCs; unbound DGKai 2.4 nM, DGKzi 0 nM
  CD25+ of CD8+ naïve T-cells, Observed: 8.3% and 2.1% and 5%
Human PBMCs; unbound DGKai 24 nM, DGKzi 0 nM
  CD25+ of CD8+ naïve T-cells, Observed: 6.8% and 5.4% and 7.3%
Human PBMCs; unbound DGKai 72 nM, DGKzi 0 nM
  CD25+ of CD8+ naïve T-cells, Observed: 9% and 6.7% and 12%
Human DGKalpha
  IC50: 0.00025 µM
[1]
  tumor growth inhibition: only moderate tumor growth inhibitions
Human DGKzeta
  IC50: 17.2 µM
